Measurements taken from PubChem BioAssay AID248 (DTP/NCI, 2004).
Values joined by “and” are separate entries in the source; they are usually repeats but may differ in a detail not shown here. Equal values may be shown once. Inconclusive results and toxic doses are left out.

System: L1210 leukemia ip in BDF1 mice, survival T/C
Test: NCI In Vivo Anticancer Drug Screen. Data for tumor model L1210 Leukemia (intraperitoneal) in B6D2F1 (BDF1) mice
Conditions: endpoint: mean survival time, higher = longer survival
Method in brief: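 Tumor cells were implanted, animals were treated, and survival was followed. The result divides the treated measurement by the vehicle-control measurement.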

[1] = dose: 50.0 mg/kg/injection, schedule: Q01DX Z (ip), vehicle: methylcellulose (MC)
[2] = dose: 400.0 mg/kg/injection, schedule: Q01DX001 (ip), vehicle: carboxymethylcellulose (CMC)
[3] = dose: 100.0 mg/kg/injection, schedule: Q04DX002 (ip), vehicle: Klucel (hydroxypropylcellulose) (HPC)
[4] = dose: 200.0 mg/kg/injection, schedule: Q04DX002 (ip), vehicle: Klucel (hydroxypropylcellulose) (HPC)
[5] = dose: 400.0 mg/kg/injection, schedule: Q04DX002 (ip), vehicle: Klucel (hydroxypropylcellulose) (HPC)
[6] = dose: 100.0 mg/kg/injection, schedule: Q04DX003 (ip), vehicle: saline with Tween-80
[7] = dose: 200.0 mg/kg/injection, schedule: Q04DX003 (ip), vehicle: saline with Tween-80
[8] = dose: 100.0 mg/kg/injection, schedule: Q01DX001 (ip), vehicle: saline
[9] = dose: 200.0 mg/kg/injection, schedule: Q01DX001 (ip), vehicle: saline
[10] = dose: 400.0 mg/kg/injection, schedule: Q01DX001 (ip), vehicle: saline
[11] = dose: 400.0 mg/kg/injection, schedule: Q04DX003 (ip), vehicle: saline with Tween-80
[12] = dose: 75.0 mg/kg/injection, schedule: Q01DX001 (ip), vehicle: saline
[13] = dose: 150.0 mg/kg/injection, schedule: Q01DX001 (ip), vehicle: saline

Clc1ccc(CSc2ncc(Br)c(Nc3cc(Cl)ccc3Cl)n2)cc1
T/C [1]: 96 % of control
T/C (dose: 200.0 mg/kg/injection, schedule: Q01DX Z (ip), vehicle: methylcellulose (MC)): 89 % of control

CCOC(=O)Nc1cc(N)c(N)c(NC(c2ccccc2)c2ccccc2)n1
T/C (dose: 100.0 mg/kg/injection, schedule: Q01DX001 (ip), vehicle: other): 102 % of control
T/C (dose: 200.0 mg/kg/injection, schedule: Q01DX001 (ip), vehicle: other): 104 % of control
T/C (dose: 400.0 mg/kg/injection, schedule: Q01DX001 (ip), vehicle: other): 100 % of control

CC(C)=CCC/C(C)=C/CO
T/C (dose: 50.0 mg/kg/injection, schedule: Q01DX009 (ip), vehicle: saline with Tween-80): 92 % of control
T/C (dose: 100.0 mg/kg/injection, schedule: Q01DX001 (ip), vehicle: carboxymethylcellulose (CMC)): 95 % of control
T/C (dose: 100.0 mg/kg/injection, schedule: Q01DX009 (ip), vehicle: saline with Tween-80): 98 % of control
T/C (dose: 200.0 mg/kg/injection, schedule: Q01DX001 (ip), vehicle: carboxymethylcellulose (CMC)): 108 % of control
T/C (dose: 200.0 mg/kg/injection, schedule: Q01DX009 (ip), vehicle: saline with Tween-80): 98 % of control
T/C [2]: 101 % of control

Cc1cccc(SC(=O)Nc2ccc([N+](=O)[O-])cc2Cl)c1
T/C [3]: 100 % of control
T/C [4]: 116 % of control
T/C [5]: 92 % of control

Clc1ccc(NC(Nc2ccc(Cl)c(Cl)c2)C(Cl)(Cl)Cl)cc1Cl
T/C [6]: 101 % of control
T/C [7]: 90 % of control

O=C(Nc1cccc(Cl)c1)Nc1cccc(C(F)(F)F)c1
T/C (dose: 15.0 mg/kg/injection, schedule: Q01DX015 (ip), vehicle: carboxymethylcellulose (CMC)): 103 % of control
T/C (dose: 30.0 mg/kg/injection, schedule: Q01DX015 (ip), vehicle: carboxymethylcellulose (CMC)): 103 % of control
T/C (dose: 60.0 mg/kg/injection, schedule: Q01DX015 (ip), vehicle: carboxymethylcellulose (CMC)): 100 % of control
T/C (dose: 120.0 mg/kg/injection, schedule: Q01DX015 (ip), vehicle: carboxymethylcellulose (CMC)): 103 % of control

Clc1cccc(NCCc2ccccc2)c1
T/C (dose: 100.0 mg/kg/injection, schedule: Q04DX003 (ip), vehicle: Klucel (hydroxypropylcellulose) (HPC)): 94 % of control
T/C (dose: 200.0 mg/kg/injection, schedule: Q04DX003 (ip), vehicle: Klucel (hydroxypropylcellulose) (HPC)): 94 % of control
T/C (dose: 400.0 mg/kg/injection, schedule: Q04DX003 (ip), vehicle: Klucel (hydroxypropylcellulose) (HPC)): 102 % of control

COc1nc(=O)n(C2CCCO2)cc1C (stereo not given)
T/C (dose: 50.0 mg/kg/injection, schedule: Q01DX001 (ip), vehicle: saline): 95 % of control
T/C [8]: 95 % of control
T/C [9]: 104 % of control
T/C [10]: 98 % of control

O=C1NC(c2ccccc2)(c2ccccc2)C(O)N1CCO (stereo not given)
T/C [6]: 101 % of control
T/C [7]: 101 % of control
T/C [11]: 98 % of control

N=C(N)c1ccncc1
T/C (dose: 100.0 mg/kg/injection, schedule: Q04DX003 (ip), vehicle: saline): 104 % of control
T/C (dose: 200.0 mg/kg/injection, schedule: Q04DX003 (ip), vehicle: saline): 104 % of control
T/C (dose: 400.0 mg/kg/injection, schedule: Q04DX003 (ip), vehicle: saline): 107 % of control

FC(F)(F)c1nccc(=S)[nH]1
T/C [1]: 98 % of control
T/C (dose: 100.0 mg/kg/injection, schedule: Q01DX Z (ip), vehicle: methylcellulose (MC)): 90 % of control

C/C=C1\CCCCN(Cc2ccccc2)CCC1
T/C [12]: 104 % of control
T/C [13]: 98 % of control

CCOC(=O)C1=CCC(n2cc(F)c(=O)[nH]c2=O)O1 (stereo not given)
T/C [6]: 98 % of control
T/C [7]: 102 % of control
T/C [11]: 98 % of control

Cc1ccc(C(=O)N/N=C/c2ccccc2O)cc1
T/C [3]: 89 % of control
T/C [4]: 92 % of control
T/C [5]: 105 % of control

Cc1cccc(C(=O)O)c1CC1NCCC2c3ccccc3NC12 (stereo not given)
T/C [12]: 98 % of control
T/C [13]: 100 % of control

CCn1cnc2c(SC)ncnc21
T/C (dose: 75.0 mg/kg/injection, schedule: Q01DX001 (ip), vehicle: acetone): 101 % of control
T/C (dose: 150.0 mg/kg/injection, schedule: Q01DX001 (ip), vehicle: acetone): 106 % of control
T/C (dose: 300.0 mg/kg/injection, schedule: Q01DX001 (ip), vehicle: acetone): 108 % of control

c1ccc2c(c1)CCc1ccccc1CN(CCN1CCCC1)C2
T/C (dose: 25.0 mg/kg/injection, schedule: Q01DX009 (ip), vehicle: Klucel (hydroxypropylcellulose) (HPC)): 96 % of control
T/C (dose: 100.0 mg/kg/injection, schedule: Q01DX009 (ip), vehicle: Klucel (hydroxypropylcellulose) (HPC)): 99 % of control

Cc1ccc(NC(=O)N(CCI)N=O)cc1
T/C (dose: 17.0 mg/kg/injection, schedule: Q01DX015 (ip), vehicle: carboxymethylcellulose (CMC)): 110 % of control
T/C (dose: 58.0 mg/kg/injection, schedule: Q01DX015 (ip), vehicle: carboxymethylcellulose (CMC)): 161 % of control
T/C (dose: 88.0 mg/kg/injection, schedule: Q01DX015 (ip), vehicle: carboxymethylcellulose (CMC)): 157 % of control
T/C (dose: 133.0 mg/kg/injection, schedule: Q01DX015 (ip), vehicle: carboxymethylcellulose (CMC)): 92 % of control
T/C (dose: 177.0 mg/kg/injection, schedule: Q01DX001 (ip), vehicle: carboxymethylcellulose (CMC)): 121 % of control
T/C (dose: 200.0 mg/kg/injection, schedule: Q01DX015 (ip), vehicle: carboxymethylcellulose (CMC)): 111 % of control and 113 % of control
T/C [2]: 159 % of control

O=C(CN1C(=O)CCC1=O)Oc1ccc([N+](=O)[O-])cc1
T/C [8]: 91 % of control
T/C [9]: 98 % of control
T/C [10]: 102 % of control
